Active and inactive are the calls of the source. No cut-off for these calls is given here. Some results are limits rather than exact numbers.

The text below walks through data of ChEMBL document CHEMBL4725363 (J Med Chem, 2020).

Series [1] addresses cGMP-specific 3',5'-cyclic phosphodiesterase (Homo sapiens, UniProt O76074). Kind of series: Inhibition of human PDE5A1 (535-860 residues) expressed in Escherichia coli BL21 incubated for 15 mins using [3H]-cGMP as substrate by liquid scintillation counting method.
For series [2], the target named is DNA topoisomerase 2-alpha (Homo sapiens) (UniProt P11388). Kind of series: Inhibition of Top2 (unknown origin) mediated supercoiled DNA relaxation at 100 uM.
Series [3] concerns the target T1, DNA topoisomerase 1 (Homo sapiens) (UniProt P11387).
T1 sequence (whole entry): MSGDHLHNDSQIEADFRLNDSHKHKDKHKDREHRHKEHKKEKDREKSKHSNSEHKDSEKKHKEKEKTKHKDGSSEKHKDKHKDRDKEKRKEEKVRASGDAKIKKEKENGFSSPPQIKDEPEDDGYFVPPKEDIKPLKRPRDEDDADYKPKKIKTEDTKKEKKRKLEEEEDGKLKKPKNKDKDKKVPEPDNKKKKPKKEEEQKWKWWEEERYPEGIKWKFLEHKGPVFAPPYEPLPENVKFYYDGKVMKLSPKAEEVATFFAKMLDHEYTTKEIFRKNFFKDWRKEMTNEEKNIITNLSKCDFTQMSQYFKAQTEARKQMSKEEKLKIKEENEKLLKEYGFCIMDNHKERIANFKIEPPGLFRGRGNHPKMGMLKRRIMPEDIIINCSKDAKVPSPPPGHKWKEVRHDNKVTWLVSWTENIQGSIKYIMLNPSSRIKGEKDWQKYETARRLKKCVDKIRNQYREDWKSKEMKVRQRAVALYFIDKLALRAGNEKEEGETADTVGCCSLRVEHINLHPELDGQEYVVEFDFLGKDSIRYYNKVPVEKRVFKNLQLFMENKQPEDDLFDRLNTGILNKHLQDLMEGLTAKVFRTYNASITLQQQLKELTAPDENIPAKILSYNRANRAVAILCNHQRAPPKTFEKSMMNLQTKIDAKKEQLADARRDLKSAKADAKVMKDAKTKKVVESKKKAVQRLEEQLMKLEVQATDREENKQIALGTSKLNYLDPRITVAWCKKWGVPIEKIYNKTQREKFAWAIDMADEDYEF
Kind of series: Inhibition of Top (unknown origin) mediated supercoiled DNA relaxation at 100 uM.

Series [4] concerns the target Dual specificity calcium/calmodulin-dependent 3',5'-cyclic nucleotide phosphodiesterase 1B (Homo sapiens, UniProt Q01064). Kind of series: Inhibition of human PDE1B (10-487 residues) expressed in Sf9 cells incubated for 15 mins using [3H]-cGMP as substrate by liquid scintillation counting method.
The target of series [5] is High affinity 3',5'-cyclic-AMP phosphodiesterase 7A (Homo sapiens, UniProt Q13946). Briefly: Inhibition of PDE7A1 catalytic domain (130 to 482 residues) (unknown origin) using [3H]-cAMP as substrate after 15 mins by liquid scintillation counting method.
Series [6] concerns the target cAMP and cAMP-inhibited cGMP 3',5'-cyclic phosphodiesterase 10A (Homo sapiens, UniProt Q9Y233). Kind of series: Inhibition of human PDE10A catalytic domain (449 to 770 residues) using [3H]-cAMP as substrate after 15 mins by liquid scintillation counting method.
Series [7] deals with Dual 3',5'-cyclic-AMP and -GMP phosphodiesterase 11A (Homo sapiens, UniProt Q9HCR9). Briefly: Inhibition of PDE11A catalytic domain (unknown origin) using [3H]-cAMP or [3H]-[…] as substrate after 15 mins by liquid scintillation counting method.
The nature of series [8]: Inhibition of human PDE5A1 D563A mutant expressed in Escherichia coli BL21 incubated for 15 mins using [3H]-cGMP as substrate by liquid scintillation counting method.
The species entered for another series is Homo sapiens. Briefly: Selectivity index, ratio of IC50 for human PDE6C to IC50 for human PDE5A1.
The subject of series [9] is COc1ccc2c3c([nH]c2c1)[C@@H]1N(CC3)C(=O)c2c(OC)cccc2N1C. Kind of series: Negative allosteric modulator activity at human PDE5A1 (535-860 residues) expressed in Escherichia coli BL21 assessed as Km for cGMP at 25 nM incubated for 15 mins using [3H]-cGMP as substrate by liquid scintillation counting method (reference value: 4.22 +/- 0.45 uM). As to conditions: filed as negative allosteric modulator.

Series [10] shares this test system. Kind of series: Negative allosteric modulator activity at human PDE5A1 (535-860 residues) expressed in Escherichia coli BL21 assessed as Km for cGMP at 50 nM incubated for 15 mins using [3H]-cGMP as substrate by liquid scintillation counting method (reference value: 4.22 +/- 0.45 uM). As to conditions: filed as negative allosteric modulator.
For series [11] the test system is unchanged. Kind of series: Negative allosteric modulator activity at human PDE5A1 (535-860 residues) expressed in Escherichia coli BL21 assessed as Km for cGMP at 100 nM incubated for 15 mins using [3H]-cGMP as substrate by liquid scintillation counting method (reference value: 4.22 +/- 0.45 uM). As to conditions: filed as negative allosteric modulator.
For series [12] the test system is unchanged. Kind of series: Negative allosteric modulator activity at human PDE5A1 (535-860 residues) expressed in Escherichia coli BL21 assessed as Km for cGMP at 200 nM incubated for 15 mins using [3H]-cGMP as substrate by liquid scintillation counting method (reference value: 4.22 +/- 0.45 uM). As to conditions: filed as negative allosteric modulator.
The test system is the same in series [13]. Briefly: Negative allosteric modulator activity at human PDE5A1 (535-860 residues) expressed in Escherichia coli BL21 assessed as Kcat for cGMP at 25 nM incubated for 15 mins using [3H]-cGMP as substrate by liquid scintillation counting method (reference value: 2.53 +/- 0.24 /s). As to conditions: filed as negative allosteric modulator.
Series [14] has the same test system. Briefly: Negative allosteric modulator activity at human PDE5A1 (535-860 residues) expressed in Escherichia coli BL21 assessed as Kcat for cGMP at 50 nM incubated for 15 mins using [3H]-cGMP as substrate by liquid scintillation counting method (reference value: 2.53 +/- 0.24 /s). As to conditions: filed as negative allosteric modulator.
Series [15] shares this test system. Kind of series: Negative allosteric modulator activity at human PDE5A1 (535-860 residues) expressed in Escherichia coli BL21 assessed as Kcat for cGMP at 100 nM incubated for 15 mins using [3H]-cGMP as substrate by liquid scintillation counting method (reference value: 2.53 +/- 0.24 /s). As to conditions: filed as negative allosteric modulator.
The test system is the same in series [16]. Kind of series: Negative allosteric modulator activity at human PDE5A1 (535-860 residues) expressed in Escherichia coli BL21 assessed as Kcat for cGMP at 200 nM incubated for 15 mins using [3H]-cGMP as substrate by liquid scintillation counting method (reference value: 2.53 +/- 0.24 /s). As to conditions: filed as negative allosteric modulator.
Series [17] shares this test system. Briefly: Negative allosteric modulator activity at human PDE5A1 (535-860 residues) expressed in Escherichia coli BL21 assessed as Kcat/Km ratio for cGMP at 25 nM incubated for 15 mins using [3H]-cGMP as substrate by liquid scintillation counting method (reference value: 0.6 +/- 0.04 /s/microM). As to conditions: filed as negative allosteric modulator.
For series [18] the test system is unchanged. Briefly: Negative allosteric modulator activity at human PDE5A1 (535-860 residues) expressed in Escherichia coli BL21 assessed as Kcat/Km ratio for cGMP at 50 nM incubated for 15 mins using [3H]-cGMP as substrate by liquid scintillation counting method (reference value: 0.6 +/- 0.04 /s/microM). As to conditions: filed as negative allosteric modulator.

Series [19] has the same test system. Briefly: Negative allosteric modulator activity at human PDE5A1 (535-860 residues) expressed in Escherichia coli BL21 assessed as Kcat/Km ratio for cGMP at 100 nM incubated for 15 mins using [3H]-cGMP as substrate by liquid scintillation counting method (reference value: 0.6 +/- 0.04 /s/microM). As to conditions: filed as negative allosteric modulator.
Series [20] shares this test system. Briefly: Negative allosteric modulator activity at human PDE5A1 (535-860 residues) expressed in Escherichia coli BL21 assessed as Kcat/Km ratio for cGMP at 200 nM incubated for 15 mins using [3H]-cGMP as substrate by liquid scintillation counting method (reference value: 0.6 +/- 0.04 /s/microM). As to conditions: filed as negative allosteric modulator.

Sequence of cAMP and cAMP-inhibited cGMP 3',5'-cyclic phosphodiesterase 10A (Q9Y233 whole entry, the tested form may be a part): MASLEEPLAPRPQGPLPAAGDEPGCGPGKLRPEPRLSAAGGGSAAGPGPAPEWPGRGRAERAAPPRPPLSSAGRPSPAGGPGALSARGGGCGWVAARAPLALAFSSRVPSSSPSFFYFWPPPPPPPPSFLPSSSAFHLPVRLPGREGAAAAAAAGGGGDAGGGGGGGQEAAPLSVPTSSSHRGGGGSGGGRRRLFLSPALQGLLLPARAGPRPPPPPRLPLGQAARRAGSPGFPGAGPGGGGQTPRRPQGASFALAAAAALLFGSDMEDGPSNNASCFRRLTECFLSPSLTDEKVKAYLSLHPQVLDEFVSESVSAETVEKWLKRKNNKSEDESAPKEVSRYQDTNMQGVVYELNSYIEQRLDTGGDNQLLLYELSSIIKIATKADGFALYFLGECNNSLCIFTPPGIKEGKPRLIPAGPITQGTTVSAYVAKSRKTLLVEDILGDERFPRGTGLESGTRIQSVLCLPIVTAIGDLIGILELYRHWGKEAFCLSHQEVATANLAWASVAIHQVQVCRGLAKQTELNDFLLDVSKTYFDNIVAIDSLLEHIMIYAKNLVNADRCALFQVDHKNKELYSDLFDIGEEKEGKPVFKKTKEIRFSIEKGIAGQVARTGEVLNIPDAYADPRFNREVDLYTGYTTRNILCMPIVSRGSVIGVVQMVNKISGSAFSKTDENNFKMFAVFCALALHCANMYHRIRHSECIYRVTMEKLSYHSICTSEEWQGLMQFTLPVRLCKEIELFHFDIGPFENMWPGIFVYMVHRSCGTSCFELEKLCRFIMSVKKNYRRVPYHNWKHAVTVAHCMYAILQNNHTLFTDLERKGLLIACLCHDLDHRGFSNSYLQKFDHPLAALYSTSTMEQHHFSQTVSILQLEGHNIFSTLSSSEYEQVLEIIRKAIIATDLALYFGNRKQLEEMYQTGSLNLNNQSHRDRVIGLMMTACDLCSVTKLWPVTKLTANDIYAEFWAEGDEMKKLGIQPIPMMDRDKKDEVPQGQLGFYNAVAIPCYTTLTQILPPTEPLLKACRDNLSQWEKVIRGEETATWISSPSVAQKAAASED
Sequence of Dual specificity calcium/calmodulin-dependent 3',5'-cyclic nucleotide phosphodiesterase 1B (Q01064 whole entry, the tested form may be a part): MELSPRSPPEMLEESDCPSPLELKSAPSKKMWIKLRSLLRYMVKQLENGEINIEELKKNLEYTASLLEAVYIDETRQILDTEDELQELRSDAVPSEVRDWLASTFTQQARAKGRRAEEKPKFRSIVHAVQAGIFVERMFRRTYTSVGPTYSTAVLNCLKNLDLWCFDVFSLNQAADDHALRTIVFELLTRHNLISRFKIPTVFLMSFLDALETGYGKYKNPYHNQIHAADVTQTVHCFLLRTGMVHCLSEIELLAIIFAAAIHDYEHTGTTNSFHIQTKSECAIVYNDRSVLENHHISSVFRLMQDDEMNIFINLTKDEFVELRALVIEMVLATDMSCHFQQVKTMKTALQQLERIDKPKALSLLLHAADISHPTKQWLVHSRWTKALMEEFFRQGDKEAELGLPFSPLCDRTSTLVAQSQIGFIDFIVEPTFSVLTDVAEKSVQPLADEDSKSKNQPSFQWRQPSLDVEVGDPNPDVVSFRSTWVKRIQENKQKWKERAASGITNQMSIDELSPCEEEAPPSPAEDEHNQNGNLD
Sequence of High affinity 3',5'-cyclic-AMP phosphodiesterase 7A (Q13946 whole entry, the tested form may be a part): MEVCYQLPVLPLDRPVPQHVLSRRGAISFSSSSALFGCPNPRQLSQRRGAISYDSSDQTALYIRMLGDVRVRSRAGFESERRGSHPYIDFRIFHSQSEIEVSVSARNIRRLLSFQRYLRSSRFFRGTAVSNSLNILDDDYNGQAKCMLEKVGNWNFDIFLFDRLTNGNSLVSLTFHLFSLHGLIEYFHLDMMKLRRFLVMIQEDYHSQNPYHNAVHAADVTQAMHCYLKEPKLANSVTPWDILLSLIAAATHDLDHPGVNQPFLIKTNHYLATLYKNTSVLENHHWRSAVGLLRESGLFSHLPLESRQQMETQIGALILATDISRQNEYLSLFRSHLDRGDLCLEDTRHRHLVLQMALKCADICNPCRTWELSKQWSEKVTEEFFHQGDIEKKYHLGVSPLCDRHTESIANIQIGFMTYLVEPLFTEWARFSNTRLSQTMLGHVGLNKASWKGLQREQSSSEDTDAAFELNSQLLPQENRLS
Sequence of Dual 3',5'-cyclic-AMP and -GMP phosphodiesterase 11A (Q9HCR9 whole entry, the tested form may be a part): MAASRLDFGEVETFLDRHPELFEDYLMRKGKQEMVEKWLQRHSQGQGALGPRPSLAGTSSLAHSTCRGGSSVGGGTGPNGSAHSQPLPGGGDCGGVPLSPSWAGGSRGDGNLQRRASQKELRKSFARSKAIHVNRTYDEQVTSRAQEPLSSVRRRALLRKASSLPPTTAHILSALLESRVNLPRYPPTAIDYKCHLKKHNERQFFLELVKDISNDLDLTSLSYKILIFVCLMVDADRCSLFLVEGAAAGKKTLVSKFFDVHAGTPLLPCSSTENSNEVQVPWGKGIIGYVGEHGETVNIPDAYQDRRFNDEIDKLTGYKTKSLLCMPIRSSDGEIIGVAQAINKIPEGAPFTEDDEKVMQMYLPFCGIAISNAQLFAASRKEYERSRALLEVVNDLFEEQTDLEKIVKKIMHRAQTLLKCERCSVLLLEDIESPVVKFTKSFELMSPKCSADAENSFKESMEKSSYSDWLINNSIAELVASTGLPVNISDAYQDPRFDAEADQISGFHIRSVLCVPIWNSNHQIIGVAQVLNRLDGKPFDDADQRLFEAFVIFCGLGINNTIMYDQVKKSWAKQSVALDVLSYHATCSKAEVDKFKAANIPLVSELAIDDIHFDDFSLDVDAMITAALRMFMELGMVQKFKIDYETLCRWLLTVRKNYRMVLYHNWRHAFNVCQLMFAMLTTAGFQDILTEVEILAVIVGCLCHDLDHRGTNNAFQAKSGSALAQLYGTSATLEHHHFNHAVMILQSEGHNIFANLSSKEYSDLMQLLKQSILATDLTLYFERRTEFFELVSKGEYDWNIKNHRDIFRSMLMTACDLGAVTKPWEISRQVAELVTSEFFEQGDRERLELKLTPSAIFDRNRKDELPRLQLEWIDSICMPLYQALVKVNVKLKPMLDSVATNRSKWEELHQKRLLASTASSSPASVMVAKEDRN
Sequence of DNA topoisomerase 2-alpha (Homo sapiens) (P11388 whole entry): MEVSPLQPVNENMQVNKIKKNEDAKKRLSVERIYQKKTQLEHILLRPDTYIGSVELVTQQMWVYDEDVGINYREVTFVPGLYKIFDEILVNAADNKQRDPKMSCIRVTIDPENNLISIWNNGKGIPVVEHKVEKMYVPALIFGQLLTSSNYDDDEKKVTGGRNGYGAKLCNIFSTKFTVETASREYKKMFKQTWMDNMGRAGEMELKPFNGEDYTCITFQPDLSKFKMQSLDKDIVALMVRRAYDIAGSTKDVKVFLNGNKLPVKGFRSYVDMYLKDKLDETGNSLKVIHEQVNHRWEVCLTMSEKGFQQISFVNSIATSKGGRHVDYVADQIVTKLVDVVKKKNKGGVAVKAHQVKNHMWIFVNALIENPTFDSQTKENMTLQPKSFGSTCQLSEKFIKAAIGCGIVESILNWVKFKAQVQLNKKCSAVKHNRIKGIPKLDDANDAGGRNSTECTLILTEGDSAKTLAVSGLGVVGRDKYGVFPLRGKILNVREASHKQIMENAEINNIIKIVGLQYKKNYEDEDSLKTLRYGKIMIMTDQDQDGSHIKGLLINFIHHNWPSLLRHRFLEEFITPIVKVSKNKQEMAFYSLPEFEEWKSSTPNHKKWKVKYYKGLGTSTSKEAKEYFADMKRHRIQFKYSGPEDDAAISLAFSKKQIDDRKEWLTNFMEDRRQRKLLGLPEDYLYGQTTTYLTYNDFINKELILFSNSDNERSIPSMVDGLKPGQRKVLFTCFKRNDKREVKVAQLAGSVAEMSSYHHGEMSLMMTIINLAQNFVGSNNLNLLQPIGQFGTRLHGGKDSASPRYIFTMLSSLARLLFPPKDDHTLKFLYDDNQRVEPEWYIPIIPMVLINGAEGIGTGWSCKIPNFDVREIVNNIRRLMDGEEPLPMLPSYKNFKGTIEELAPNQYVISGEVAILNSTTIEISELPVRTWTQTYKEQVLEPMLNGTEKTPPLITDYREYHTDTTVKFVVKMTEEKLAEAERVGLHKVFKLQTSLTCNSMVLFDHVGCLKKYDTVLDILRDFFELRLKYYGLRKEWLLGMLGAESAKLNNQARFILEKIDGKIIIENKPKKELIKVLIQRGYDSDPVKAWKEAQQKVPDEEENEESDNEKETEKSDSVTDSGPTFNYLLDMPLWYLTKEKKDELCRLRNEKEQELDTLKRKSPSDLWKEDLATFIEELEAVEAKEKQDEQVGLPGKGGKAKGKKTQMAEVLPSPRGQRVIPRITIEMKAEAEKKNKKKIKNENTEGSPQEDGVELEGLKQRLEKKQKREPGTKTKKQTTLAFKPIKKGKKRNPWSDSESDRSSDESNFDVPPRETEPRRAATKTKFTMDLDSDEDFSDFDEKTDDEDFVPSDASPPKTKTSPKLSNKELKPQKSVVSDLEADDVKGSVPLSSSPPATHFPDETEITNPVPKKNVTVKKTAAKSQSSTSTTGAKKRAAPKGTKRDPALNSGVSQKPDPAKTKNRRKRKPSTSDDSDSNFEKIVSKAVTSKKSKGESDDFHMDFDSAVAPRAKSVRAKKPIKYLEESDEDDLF

The term IC50 denotes the midpoint of a concentration-inhibition curve. Take `COc1ccc2c3c([nH]c2c1)C1N(CC3)C(=O)c2c(OC)cccc2N1C` (stereo not drawn): the half-inhibitory concentration (IC50) in series [1] came out at 53 nM.
On the same count and under the same terms, as for `CN1c2cccc(O)c2C(=O)N2CCc3c([nH]c4ccccc34)[C@H]21`, the figure is 420 nM.
Consider `COc1cccc2c1C(=O)N1CCc3c([nH]c4cccc(OC)c34)[C@H]1N2C`, for which the IC50 in series [1] was 35 nM; in series [4] it was above 20000 nM; in series [5], above 20000 nM; in series [6], 2200 nM; in [7], above 20000 nM. Also, the inhibition result in [2] and in [3] was “inactive” in each case.
As for `CN1c2ccccc2C(=O)N2CCc3c([nH]c4ccccc34)C21` (stereo not drawn), in [1], the concentration for half-maximal inhibition (IC50) turned out to be 2100 nM.
With `COc1cccc2c1C(=O)N1CCc3c([nH]c4ccccc34)[C@@H]1N2C`, the IC50 in series [1] turned out to be 2600 nM.
On the same count and under the same terms, as for `COc1ccc2c3c([nH]c2c1)[C@H]1N(CC3)C(=O)c2c(OC)cccc2N1C`, the figure is above 10000 nM.
`CCCc1nn(C)c2c(=O)[nH]c(-c3cc(S(=O)(=O)N4CCN(C)CC4)ccc3OCC)nc12` showed an IC50 in [8] of 1.2 nM.
In the case of `CN1c2ccccc2C(=O)N2CCc3c([nH]c4ccccc34)[C@@H]21` [EVODIAMINE], the half-inhibitory concentration (IC50) in series [1] was above 50000 nM.
`COc1cccc2c1C(=O)N1CCc3c([nH]c4ccccc34)C1N2C` (stereo not drawn) displayed a half-maximal inhibitory concentration (IC50) in series [1] of 340 nM. Moreover, in the series listed under Homo sapiens, the Ratio IC50 was above 64.
For `CN1c2cccc(O)c2C(=O)N2CCc3c([nH]c4ccccc34)[C@@H]21`, the half-maximal inhibitory concentration (IC50) in series [1] is above 10000 nM.
The Km is the substrate concentration at which the rate is half of its maximum. Broadly, the kcat is the number of substrate molecules converted per active site and unit of time at saturation. As a reminder, the kcat/Km is the turnover number divided by the Michaelis constant. Take “cGMP-specific 3',5'-cyclic phosphodiesterase (Homo sapiens) (from UniProt O76074)”: the Km in [9] turned out to be 11.8 µM; in series [10], 11.8 µM; in series [11], 13.2 µM; in series [12], 12.5 µM. Further, the kcat in [13] stood at 1.99 s⁻¹; in series [14], 1.51 s⁻¹; in series [15], 1.48 s⁻¹; in [16] it was 1.05 s⁻¹. Moreover, the specificity constant (kcat/Km) in series [17] is 170000 M⁻¹ s⁻¹; in [18] it was 130000 M⁻¹ s⁻¹; in series [19] it was 110000 M⁻¹ s⁻¹; in series [20], 84000 M⁻¹ s⁻¹.
Take `CN1c2ccccc2C(=O)N2CCc3c([nH]c4ccccc34)[C@H]21`: the IC50 in series [1] was 1300 nM.
Compound `CN1c2cccc(O)c2C(=O)N2CCc3c([nH]c4ccccc34)C21` (stereo not drawn) came in with an IC50 in [1] of 1700 nM.
`COc1cccc2c1C(=O)N1CCc3c([nH]c4ccccc34)[C@H]1N2C` displayed an IC50 in series [1] of 110 nM. Moreover, the Ratio IC50 in the series listed under Homo sapiens was above 190.
